Test results from patent US20190388437A1, “COMPOSITIONS AND METHODS FOR TREATING BONE AND JOINT INFECTIONS” (priority 2014, published 2019).
≈ marks a conversion by molar mass, not a printed value.

Assays:
Format in all cases: cell-based
[1] = Synergy testing by the checkerboard method, FA/co-drug; conditions: FA combined with the co-drug
Method: CLSI broth microdilution (BMD) and anaerobic agar dilution (AD) methods were performed. Modifications of standard test methods included adding 10% human serum, adjusting the medium pH to 5, 6, and 8, and synergy was assessed by the checkerboard method. Mutational rates to R were determined at 4×.

[2] = system: ciprofloxacin-resistant (gyrA and parC genotype) S. aureus; test: Agar dilution MIC against resistant S. aureus; conditions: Staphylococcus aureus
From the text: (§1) The in vitro activity of CEM-102 was compared with that of telithromycin, azithromycin, erythromycin, levofloxacin, linezolid, and doxycycline against a total of 145 resistant S. aureus by agar dilution procedures (CLSI, M7-A7, M100-S18). The tested strains included S. aureus MRSA (Mec A genotype; 100 isolates), macrolide-resistant (ermA, B, C genotype or MLSb-resistant; 25), and ciprofloxacin-resistant (gyrA and parC genotype; 20).

[3] = system: S. aureus MRSA (Mec A genotype); test: Agar dilution MIC against resistant S. aureus; conditions: Staphylococcus aureus
From the text: as §1

[4] = system: macrolide-resistant S. aureus (ermA, B, C genotype or MLSb-resistant); test: Agar dilution MIC against resistant S. aureus; conditions: Staphylococcus aureus
From the text: as §1

[5] = system: S. pyogenes [SPYO]; test: Reference broth microdilution susceptibility testing, Canadian isolates
From the text: (§2) To determine a contemporary susceptibility (S) spectrum pattern. 153 GP isolates (123 S. aureus, 15 coagulase-negative staphylococci [CoNS] and 15 S. pyogenes [SPYO]) were collected from 5 Canadian medical centers between 2001 and 2006.

[6] = system: S. aureus; test: as above; conditions: overall S. aureus population
From the text: as §2

[7] = system: S. aureus; test: MIC population distribution, 217 S. aureus Canadian isolates; conditions: 217 Canadian isolates

Row | Compound | Additive (number) [1] | Antagonism (number) [1] | Indeterminate (number) [1] | Indifferent (number) [1] | Synergy Complete (number) [1] | Synergy Partial (number) [1] | MIC90 [2] [µg/mL] | MIC90 [3] [µg/mL] | MIC90 [4] [µg/mL] | R rate [5] [%] | R rate [6] [%] | resistance rate [7] [%]
1 | C[C@H]1COc2c(N3CCN(C)CC3)c(F)cc3c(=O)c(C(=O)O)cn1c23 [Levofloxacin] | 0 | 0 | 2 | 4 | 0 | 0 | > 32 | 16 (≈ 44.3 µM) | 4 (≈ 11.1 µM) | – | – | –
2 | Cc1onc(-c2ccccc2)c1C(=O)N[C@@H]1C(=O)N2[C@@H]1SC(C)(C)[C@@H]2C(=O)O [Oxacillin] | 1 | 0 | 1 | 3 | 0 | 1 | – | – | – | – | – | –
3 | CO[C@H]1/C=C/O[C@@]2(C)Oc3c(C)c(O)c4c(O)c(c(/C=N/N5CCN(C)CC5)c(O)c4c3C2=O)NC(=O)/C(C)=C\C=C\[C@H](C)[C@H](O)[C@@H](C)[C@@H](O)[C@@H](C)[C@H](OC(C)=O)[C@@H]1C [Rifampin] | 1 | 0 | 0 | 0 | 0 | 5 | – | – | – | – | – | –
4 | CN[C@H](CC(C)C)C(=O)N[C@H]1C(=O)N[C@@H](CC(N)=O)C(=O)N[C@H]2C(=O)N[C@H]3C(=O)N[C@H](C(=O)N[C@H](C(=O)O)c4cc(O)cc(O)c4-c4cc3ccc4O)[C@H](O)c3ccc(c(Cl)c3)Oc3cc2cc(c3O[C@@H]2O[C@H](CO)[C@@H](O)[C@H](O)[C@H]2O[C@H]2C[C@](C)(N)[C@H](O)[C@H](C)O2)Oc2ccc(cc2Cl)[C@H]1O [Vancomycin] | 2 | 0 | 0 | 4 | 0 | 0 | – | – | – | – | – | –
5 | CC[C@H]1OC(=O)[C@H](C)[C@@H](O[C@H]2C[C@@](C)(OC)[C@@H](O)[C@H](C)O2)[C@H](C)[C@@H](O[C@@H]2O[C@H](C)C[C@H](N(C)C)[C@H]2O)[C@](C)(O)C[C@@H](C)CN(C)[C@H](C)[C@@H](O)[C@]1(C)O [azithromycin] | – | – | – | – | – | – | 16 (≈ 21.4 µM) | > 32 | > 32 | – | – | –
6 | CCC[C@@H]1C[C@@H](C(=O)N[C@@H]([C@H]2O[C@H](SC)[C@H](O)[C@@H](O)[C@H]2O)[C@H](C)Cl)N(C)C1 [clindamycin] | – | – | – | – | – | – | – | – | – | 13.3 | 28.5 | 30.9
7 | C[C@H]1c2cccc(O)c2C(=O)C2=C(O)[C@]3(O)C(=O)C(C(N)=O)=C(O)[C@@H](N(C)C)[C@@H]3[C@@H](O)[C@@H]21 [doxycycline] | – | – | – | – | – | – | 1 (≈ 2.25 µM) | 1 (≈ 2.25 µM) | – | – | – | –
8 | CC[C@H]1OC(=O)[C@H](C)[C@@H](O[C@H]2C[C@@](C)(OC)[C@@H](O)[C@H](C)O2)[C@H](C)[C@@H](O[C@@H]2O[C@H](C)C[C@H](N(C)C)[C@H]2O)[C@](C)(O)C[C@@H](C)C(=O)[C@H](C)[C@@H](O)[C@]1(C)O [erythromycin] | – | – | – | – | – | – | > 32 | > 32 | > 32 | 20.0 | 52.0 | 52.1
9 | CC(=O)NC[C@H]1CN(c2ccc(N3CCOCC3)c(F)c2)C(=O)O1 [linezolid] | – | – | – | – | – | – | 2 (≈ 5.93 µM) | 2 (≈ 5.93 µM) | 2 (≈ 5.93 µM) | – | – | –
10 | CC[C@H]1OC(=O)[C@H](C)C(=O)[C@H](C)[C@@H](O[C@@H]2O[C@H](C)C[C@H](N(C)C)[C@H]2O)[C@](C)(OC)C[C@@H](C)C(=O)[C@H](C)[C@H]2N(CCCCn3cnc(-c4cccnc4)c3)C(=O)O[C@]12C [telithromycin] | – | – | – | – | – | – | 0.06 (≈ 0.0739 µM) | 0.06 (≈ 0.0739 µM) | 4 (≈ 4.93 µM) | – | – | –
11 | Gentamicin | 3 | 0 | 0 | 1 | 1 | 1 | – | – | – | – | – | –
